# “And” between values parts separate entries of the source, which are not always exact repeats. Identical values can stand only once. “Also recorded” adds a separate entry of the source.
# Experiments:
# [1] = target: T1, IP3K-KD (Homo sapiens, UniProt P23677); test: HPLC analysis of IP3K-KD reaction mixtures (substrate test); format: biochemical; conditions: 150 nM IP3K-KD, 500 μM analogue, 1 mM ATP, 2 h at 30 °C, Fig. 7a
# T1 construct: human IP3K-KD A isoform (residues 187–461); GST (cleaved yes); made in house; host or cells: Escherichia coli BL21 star (DE3)
# T1 sequence (P23677 187-461): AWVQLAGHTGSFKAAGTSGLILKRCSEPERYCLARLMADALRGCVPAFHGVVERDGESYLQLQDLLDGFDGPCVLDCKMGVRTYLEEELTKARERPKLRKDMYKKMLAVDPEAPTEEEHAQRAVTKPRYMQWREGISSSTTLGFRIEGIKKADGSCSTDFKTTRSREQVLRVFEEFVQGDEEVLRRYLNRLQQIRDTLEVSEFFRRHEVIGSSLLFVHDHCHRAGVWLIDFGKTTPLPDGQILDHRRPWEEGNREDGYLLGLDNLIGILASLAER
# Method: (§1) A construct encoding human IP3K-KD A isoform (residues 187–461) into pOPTG vector was used[16]. The protein was expressed in Escherichia coli BL21 star (DE3) strain. Cells were grown at 37 °C to OD600 = 1.0 then induced with 0.4 mM IPTG for 18 h at 16 °C. Protein purification was performed by adapting the reported protocol. Cells were resuspended in buffer A (10 mM Tris pH 7.5 [4 °C], 200 mM NaCl and 2 mM DTT) and disrupted by sonication. Clarified cell lysate was diluted 1/4 in buffer B (10 mM Tris pH 7.5 [4 °C] and 2 mM DTT) and loaded into a 5 mL HiTrap heparin column (GE Healthcare) washed by buffer C (20 mM Tris pH 7.5, 50 mM NaCl and 2 mM DTT), and eluted with a 0.05 M–1 M salt gradient. The eluted sample was subsequently loaded on to a 5 mL glutathione–Sepharose HP column (GE Healthcare), washed with buffer A and eluted with reduced glutathione 10 mM (Sigma-Aldrich) in buffer A. The GST tag was cleaved with home-made TEV (tobacco etch virus) protease overnight at 4 °C, (1:40 TEV/protein mass ratio). After glutathione removal with a PD10 column, the cleaved protein was further purified using a 5 mL glutathione–Sepharose HP column (GE Healthcare) followed by gel filtration on a 16/600 Superdex200 (GE Healthcare) column equilibrated in buffer D (20 mM Tris pH 7.5 [4 °C], 0.05 M (NH4)2SO4 and 2 mM DTT). Protein samples were analyzed by SDS/PAGE, concentrated around 18 mg/mL and stored at −80 °C until use.
# [2] = target: T2, IP3K-KD (human IP3K-KD A isoform, residues 187–461) (Homo sapiens, UniProt P23677); test: Fluorescence thermal shift analysis (Tycho NT.6, inflection temperature Ti); format: binding; conditions: for Ti, transition 1 (mean inflection temperature) / Ti, transition 2 (mean inflection temperature): 10 μM IP3K-KD, 100 μM chiral or 200 μM racemic ligand, AMP-PNP or ADP, 100 μM MgCl2; for Ti, transition 1 (mean inflection temperature) / Ti, transition 2 (mean inflection temperature) / ΔTi, transition 1 / ΔTi, transition 2: mean ± SD, n=3; for ΔTi, transition 1: Ti minus Ti of apo IP3K-KD (44.4); for ΔTi, transition 2: Ti minus Ti of apo IP3K-KD (53.8); for Transition 1 Ti, individual measurement / Transition 2 Ti, individual measurement: source data of Fig. 6b/6c, single replicates; for Transition 1 Dti (Ti-Ti Apo) / Transition 1 Ti Mean / Transition 2 DTi (Ti-Ti Apo) / Transition 2 Ti Mean: source data of Fig. 6c, N 3; for Stabilization of IP3K-KD by ligand (in words): thermal shift, Fig. 6c
# T2 construct: human IP3K-KD A isoform (residues 187–461); GST (cleaved yes); made in house; host or cells: Escherichia coli BL21 star (DE3)
# T2 sequence (P23677 187-461): as above
# Method: as §1
# Thermal protein denaturation was documented by recording intrinsic protein fluorescence at 330 and 350 nm wavelengths. The fluorescence recorded in each thermal run is plotted as 350/330 nm ratio and used to calculate the Inflection Temperature (Ti). Ti is the temperature at which a protein undergoes a transition in its folding state. This calculation is performed automatically by the Tycho NT.6 software. The protocol optimized for this procedure, involves a heating time of 2 min, a sample volume of 10 μl placed in a very thin capillary, and a temperature ramp from 35 °C (308 K) to 95 °C (368 K). For the experiment, IP3K-KD was diluted with buffer D to achieve a concentration of 0.31 mg/mL (10 μM). It was then mixed with 100 μM of chiral ligands or 200 μM of racemic ligands (all synthesized as stated in this work except InsP3 and InsP4 that were commercial from Avanti Polar Lipids), AMP-PNP (substrate analogues) or ADP (product-like ligands) and 100 μM MgCl2. Microsoft Excel was used to calculate and plot ΔTi values and standard deviations.
# [3] = target: T2, IP3K-KD (human IP3K-KD A isoform, residues 187–461); test: Ligand displacement assay: fluorescence polarization (anisotropy) of 2-FITC-InsP3/IP3K-KD complex; format: binding; conditions: for IC50: 100 nM IP3K-KD, 2 nM 2-FITC-InsP3, 20 mM HEPES pH 7.5, 1 mM EDTA, 50 mM KCl, n=4 replicates, 5-s and 5-p racemic, read-out: IC50, displacement of 2-FITC-InsP3 from IP3K-KD; for Kd: estimated Ki (Kd) from IC50 with [2-FITC-InsP3] 2 nM and its Kd 68 nM, read-out: Kd inferred from IC50 (Cheng and Prusoff); for Quality as IP3K ligand (in words): Fig. 6
# Method: as §1
# Binding of a competing/displacing ligand to protein is observed as a decrease in the polarization (anisotropy) of 2-FITC-InsP3. A comparison of the strength of binding of enzyme substrates, analogues and products to IP3K-KD was obtained by measurement of fluorescence polarization (here anisotropy) of 2-FITC-InsP3/IP3K-KD complex. Experimentally, 100 nM IP3K-KD was mixed with 2 nM 2-FITC-InsP3[37] in 20 mM HEPES pH 7.5, 1 mM EDTA and 50 mM KCl with the addition of displacing compounds over a range of 1 nM–50 μM. Assays were analyzed using a ClarioSTAR plate reader and IC50 values determined from fit of the data to a 4-parameter logistic as described. From IC50 values, we have estimated the Ki (Kd) values for the displacing ligands using the equation of Cheng and Prusoff:[69]1 Ki=IC50/1+L/Kd where [L] is the ligand (2-FITC-InsP3) concentration and Kd the dissociation constant for its interaction with IP3K-KD. […] Consequently, the Ki values for the displacing ligands differ trivially from their IC50 values.
# [4] = system: permeabilized rat hepatocytes; set-up: method as in PMID 11405648; conditions: cited from earlier work
# [5] = system: permeabilized rabbit platelets; set-up: method as in doi:10.1016/0960-894X(96)00399-X; conditions: cited from earlier work
# [6] = target: T1, IP3K-KD; test: Direct binding of 2-FITC-InsP3 to IP3K-KD, one-site binding model; conditions: GraphPad Prism
structure (smiles),measurement,setting,value
"O=P(O)(O)OC[C@@H]1O[C@H](CO)[C@@H](OP(=O)(O)O)[C@H](OP(=O)(O)O)[C@H]1O [7a–s, β-D-glucopyranosylmethanol 3,4,1’-trisphosphate]",Ability to act as IP3K substrate (in words),[1],are also substrates
same,"Ti, transition 1 (mean inflection temperature)",[2],49.7 ± 0.4 ºC
same,"Ti, transition 2 (mean inflection temperature)",[2],56.1 ± 0.3 ºC
same,"ΔTi, transition 1",[2],5.3 ± 0.5 ºC
same,"ΔTi, transition 2",[2],2.3 ± 0.3 ºC
same,"Transition 1 Ti, individual measurement",[2],50.2 and 49.5 and 49.4
same,"Transition 2 Ti, individual measurement",[2],55.9 and 56.1 and 56.4
same,Transition 1 Dti (Ti-Ti Apo),[2],5.3
same,Transition 1 Ti Mean,[2],49.7
same,Transition 2 DTi (Ti-Ti Apo),[2],2.3
same,Transition 2 Ti Mean,[2],56.1
same,IC50,[3],656 nM
same,Kd,[3],637 nM
"O=P(O)(O)OCC1C(O)C(OP(=O)(O)O)C(O)C(OP(=O)(O)O)C1OP(=O)(O)O (racemic) [5-p, DL-6-deoxy-6-phosphoryloxymethyl-scyllo-inositol 1,2,4-trisphosphate]",Ability to stimulate cellular Ca2+ release,[4],abolishes the ability to stimulate cellular Ca^2+ release
same,"Ti, transition 1 (mean inflection temperature)",[2],52.1 ± 0.1 ºC
same,"Ti, transition 2 (mean inflection temperature)",[2],57.6 ± 0.1 ºC
same,"ΔTi, transition 1",[2],7.7 ± 0.3 ºC
same,"ΔTi, transition 2",[2],3.8 ± 0.2 ºC
same,"Transition 1 Ti, individual measurement",[2],52.2 and 52.1 and 52.0
same,"Transition 2 Ti, individual measurement",[2],57.6 (2×) and 57.7
same,Transition 1 Dti (Ti-Ti Apo),[2],7.7
same,Transition 1 Ti Mean,[2],52.1
same,Transition 2 DTi (Ti-Ti Apo),[2],3.8
same,Transition 2 Ti Mean,[2],57.6
same,IC50,[3],875 nM
same,Quality as IP3K ligand (in words),[3],maintains quite good binding to IP3K
same,Kd,[3],850 nM
"O=P(O)(O)O[C@H]1O[C@H](CO)[C@@H](OP(=O)(O)O)[C@H](OP(=O)(O)O)[C@H]1O [6b–s, α-D-glucopyranosyl 1,3,4-trisphosphate]",Ability to act as IP3K substrate (in words),[1],weaker substrates
same,"Ti, transition 1 (mean inflection temperature)",[2],45.7 ± 0.5 ºC
same,"Ti, transition 2 (mean inflection temperature)",[2],54.6 ± 0.0 ºC
same,"ΔTi, transition 1",[2],1.3 ± 0.6 ºC
same,"ΔTi, transition 2",[2],0.8 ± 0.2 ºC
same,"Transition 1 Ti, individual measurement",[2],45.5 and 46.3 and 45.3
same,"Transition 2 Ti, individual measurement",[2],54.6
same,Transition 1 Dti (Ti-Ti Apo),[2],1.3
same,Transition 1 Ti Mean,[2],45.7
same,Transition 2 DTi (Ti-Ti Apo),[2],0.8
same,Transition 2 Ti Mean,[2],54.6
same,Stabilization of IP3K-KD by ligand (in words),[2],stabilize IP3K-KD much less than InsP3
same,IC50,[3],8980 nM
same,Kd,[3],8720 nM
"O=P(O)(O)O[C@@H]1[C@@H](O)[C@H](CO)[C@@H](OP(=O)(O)O)[C@H](OP(=O)(O)O)[C@H]1O (racemic) [5-s, DL−6-deoxy-6-hydroxymethyl-scyllo-inositol 1,2,4-trisphosphate]",Ability to act as IP3K substrate (in words),[1],are also substrates
same,45Ca2+ release relative to InsP3,[5],equipotent with InsP3 itself
same,"Ti, transition 1 (mean inflection temperature)",[2],51.3 ± 0.2 ºC
same,"Ti, transition 2 (mean inflection temperature)",[2],57.0 ± 0.1 ºC
same,"ΔTi, transition 1",[2],6.9 ± 0.4 ºC
same,"ΔTi, transition 2",[2],3.2 ± 0.2 ºC
same,"Transition 1 Ti, individual measurement",[2],51.5 and 51.1 and 51.3
same,"Transition 2 Ti, individual measurement",[2],56.9 (2×) and 57.1
same,Transition 1 Dti (Ti-Ti Apo),[2],6.9
same,Transition 1 Ti Mean,[2],51.3
same,Transition 2 DTi (Ti-Ti Apo),[2],3.2
same,Transition 2 Ti Mean,[2],57.0
same,IC50,[3],972 nM
same,Quality as IP3K ligand (in words),[3],good IP3K ligand
same,Kd,[3],944 nM
O=C(O)c1cc(NC(=S)NCCO[C@@H]2[C@H](O)[C@@H](OP(=O)(O)O)[C@H](OP(=O)(O)O)[C@@H](O)[C@@H]2OP(=O)(O)O)ccc1-c1c2ccc(=O)cc-2oc2cc(O)ccc12 [2-FITC-InsP3],Kd,[6],68 nM
"O=P(O)(O)O[C@@H]1O[C@H](CO)[C@@H](OP(=O)(O)O)[C@H](OP(=O)(O)O)[C@H]1O [6a–s, β-D-glucopyranosyl 1,3,4-trisphosphate]",Ability to act as IP3K substrate (in words),[1],are also substrates
same,"Ti, transition 1 (mean inflection temperature)",[2],51.5 ± 0.2 ºC
same,"Ti, transition 2 (mean inflection temperature)",[2],57.3 ± 0.1 ºC
same,"ΔTi, transition 1",[2],7.1 ± 0.3 ºC
same,"ΔTi, transition 2",[2],3.5 ± 0.2 ºC
same,"Transition 1 Ti, individual measurement",[2],51.4 and 51.5 and 51.7
same,"Transition 2 Ti, individual measurement",[2],57.4 (2×) and 57.2
same,Transition 1 Dti (Ti-Ti Apo),[2],7.1
same,Transition 1 Ti Mean,[2],51.5
same,Transition 2 DTi (Ti-Ti Apo),[2],3.5
same,Transition 2 Ti Mean,[2],57.3
same,IC50,[3],205 nM
same,Kd,[3],199 nM
"O=P(O)(O)OC[C@H]1O[C@H](CO)[C@@H](OP(=O)(O)O)[C@H](OP(=O)(O)O)[C@H]1O [7b–s, α-D-glucopyranosylmethanol 3,4,1’- trisphosphate]",Ability to act as IP3K substrate (in words),[1],weaker substrates; also recorded: poor substrate activity for IP3K
same,"Ti, transition 1 (mean inflection temperature)",[2],45.6 ± 0.7 ºC
same,"Ti, transition 2 (mean inflection temperature)",[2],54.4 ± 0.3 ºC
same,Binding to IP3K (in words),"[2]; Fig. 6b,c","do not, or barely, bind IP3K"
same,"ΔTi, transition 1",[2],1.2 ± 0.7 ºC
same,"ΔTi, transition 2",[2],0.6 ± 0.3 ºC
same,"Transition 1 Ti, individual measurement",[2],45.4 and 45.1 and 46.4
same,"Transition 2 Ti, individual measurement",[2],54.1 and 54.6 and 54.4
same,Transition 1 Dti (Ti-Ti Apo),[2],1.2
same,Transition 1 Ti Mean,[2],45.6
same,Transition 2 DTi (Ti-Ti Apo),[2],0.567
same,Transition 2 Ti Mean,[2],54.4
same,Stabilization of IP3K-KD by ligand (in words),[2],stabilize IP3K-KD much less than InsP3
same,IC50,[3],6990 nM
same,Kd,[3],6790 nM
